pEC50, pIC50: −log10 of the molar value. Converted amounts (≈) assume the structure as drawn. The source made the active and inactive calls. The calls are words filed in the database; no cut-off is given here.

Series [1] concerns the target DNA topoisomerase 2-alpha (Homo sapiens) (UniProt P11388). Put plainly: Inhibition of human DNA topoisomerase 2.
The target is the same in series [2]. Put plainly: Inhibition of human DNA topoisomerase 2 assessed as DNA cleavage at 20 uM.
The next series has as its system KB. Put plainly: Cytotoxicity against human KB cells. The format is functional. The note with it: for EC50: read-out: ED50 (the source's name); for pIC50: read-out: ID50 (the source's name); for CC50: read-out: LD50 (the source's name).
The test system of the next series is RPMI-7951. The experiment in a line: Cytotoxicity against human RPMI7951 cells. The note with it: read-out: ED50 (the source's name). The format is functional.
A further series has as its system Mus musculus. The experiment in a line: Toxicity in ip dosed nude mouse. Type of series: organism-based. The note with it: in vivo.
Series [3] in a line: Inhibition of tubulin polymerization.
Series [4] can be described thus: Cytotoxicity against human NCI60 cells. Type of series: functional. The note with it: for TGI: read-out: pGI100 (converted).
The target in series [5] is DNA topoisomerase 2-alpha (Homo sapiens) (UniProt P11388). Put plainly: Inhibition of topoisomerase 2.
Sequence of DNA topoisomerase 2-alpha (Homo sapiens) (P11388 whole entry): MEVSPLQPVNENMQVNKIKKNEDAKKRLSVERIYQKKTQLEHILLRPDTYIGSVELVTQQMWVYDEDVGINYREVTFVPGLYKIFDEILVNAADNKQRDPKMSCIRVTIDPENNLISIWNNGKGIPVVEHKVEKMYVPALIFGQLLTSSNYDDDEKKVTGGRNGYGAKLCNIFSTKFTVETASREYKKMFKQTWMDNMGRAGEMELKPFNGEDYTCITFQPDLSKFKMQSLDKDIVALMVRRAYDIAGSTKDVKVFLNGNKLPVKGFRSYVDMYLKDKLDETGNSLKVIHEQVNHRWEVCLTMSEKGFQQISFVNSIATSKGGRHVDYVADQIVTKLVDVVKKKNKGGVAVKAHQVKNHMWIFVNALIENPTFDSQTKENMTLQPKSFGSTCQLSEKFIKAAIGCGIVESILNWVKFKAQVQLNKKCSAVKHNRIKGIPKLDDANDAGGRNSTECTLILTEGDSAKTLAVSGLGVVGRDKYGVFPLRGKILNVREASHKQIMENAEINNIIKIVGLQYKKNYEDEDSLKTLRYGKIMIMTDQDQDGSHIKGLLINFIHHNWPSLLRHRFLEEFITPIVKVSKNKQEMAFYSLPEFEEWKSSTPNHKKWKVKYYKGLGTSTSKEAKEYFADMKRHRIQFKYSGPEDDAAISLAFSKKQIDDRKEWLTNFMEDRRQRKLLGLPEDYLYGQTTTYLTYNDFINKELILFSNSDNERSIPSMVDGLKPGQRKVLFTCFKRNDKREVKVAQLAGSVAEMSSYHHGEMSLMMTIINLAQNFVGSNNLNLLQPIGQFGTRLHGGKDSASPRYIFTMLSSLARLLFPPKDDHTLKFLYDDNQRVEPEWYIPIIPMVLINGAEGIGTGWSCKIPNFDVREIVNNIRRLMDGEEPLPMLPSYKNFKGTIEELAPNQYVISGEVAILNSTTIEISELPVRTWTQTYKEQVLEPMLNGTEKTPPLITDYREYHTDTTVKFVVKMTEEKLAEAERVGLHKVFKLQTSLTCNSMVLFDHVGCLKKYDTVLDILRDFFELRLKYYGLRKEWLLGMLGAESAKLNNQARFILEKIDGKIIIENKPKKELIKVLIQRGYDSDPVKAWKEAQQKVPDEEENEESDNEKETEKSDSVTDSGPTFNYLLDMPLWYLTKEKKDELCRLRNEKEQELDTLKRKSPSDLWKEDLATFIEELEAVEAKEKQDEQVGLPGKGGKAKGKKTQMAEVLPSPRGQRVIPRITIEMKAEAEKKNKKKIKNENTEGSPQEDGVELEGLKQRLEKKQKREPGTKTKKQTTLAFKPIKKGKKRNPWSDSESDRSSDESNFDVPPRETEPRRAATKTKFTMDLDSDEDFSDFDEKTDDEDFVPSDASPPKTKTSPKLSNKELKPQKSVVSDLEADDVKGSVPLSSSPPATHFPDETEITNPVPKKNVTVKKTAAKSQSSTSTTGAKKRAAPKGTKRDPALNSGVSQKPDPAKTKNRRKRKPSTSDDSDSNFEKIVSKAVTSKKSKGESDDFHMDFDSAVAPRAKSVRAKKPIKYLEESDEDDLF
The subject of a further series is MOLT-4. The experiment in a line: Cytotoxicity against human MOLT4 cells. Type of series: functional.
The subject of another series is MCF7. The experiment in a line: Cytotoxicity against human MCF7 cells. Type of series: functional. The note with it: for EC50: read-out: ED50 (the source's name).
For series [6], the system named is Human immunodeficiency virus. Put plainly: Antiviral activity against HIV. The format is functional, organism-based. The note with it: Human immunodeficiency virus 1.
Series [7] can be described thus: Cytotoxicity against human renal cancer cells. The format is functional. The note with it: Cancer cell lines.
The nature of series [8]: Cytotoxicity against human melanoma cells. The format is functional. The note with it: Melanoma cell.
For another series, the system named is HCT-8. The experiment in a line: Cytotoxicity against human HCT8 cells. Type of series: functional. The note with it: read-out: ED50 (the source's name).
A further series concerns A549. Put plainly: Cytotoxicity against human A549 cells. Type of series: functional. The note with it: read-out: ED50 (the source's name).
In a further series the test system is CAKI-1. The experiment in a line: Cytotoxicity against human Caki1 cells. Type of series: functional. The note with it: read-out: ED50 (the source's name).
A further series relates to SK-MEL-2. The experiment in a line: Cytotoxicity against human SK-MEL-2 cells. Type of series: functional. The note with it: read-out: ED50 (the source's name).

Compound `COc1cc([C@@H]2c3cc4c(cc3[C@@H](Nc3ccc(F)cc3)[C@H]3COC(=O)[C@H]23)OCO4)cc(OC)c1O` yielded an ID50 in series [1] of 50000 nM. In addition, in series [2], the inhibition was found to be 139%.

Consider `COC(=O)[C@@]12OC[C@]34[C@H](OC(=O)C[C@@H]13)[C@H](OC(=O)C=C(C)C)[C@H]1C(C)=C(O[C@@H]3O[C@H](CO)[C@@H](O)[C@H](O)[C@H]3O)C(=O)C[C@]1(C)[C@H]4[C@@H](O)[C@@H]2O` [BRUCEOSIDE C], for which the EC50 in the series with KB and in the series on RPMI-7951 was below 0.1 µg/mL throughout.

Take `CC[C@@]1(O)C(=O)OCc2c1cc1n(c2=O)Cc2c-1nc1ccccc1c2/C=N/c1ccccc1N[C@@H]1c2cc3c(cc2[C@@H](c2cc(OC)c(O)c(OC)c2)[C@H]2C(=O)OC[C@@H]21)OCO3`: in the series on Mus musculus, the 50% lethal dose (LD50) is given as above 50 mg/kg/day.

Compound `COc1cc2c(c(OC)c1OC)-c1ccc(SC)c(=O)cc1[C@@H](OC(C)=O)CC2` gave a pIC50 in [3] of 6.25.

Consider `Cc1ccc2c(=O)cc(-c3cccc(F)c3)[nH]c2n1`, for which, in series [4], the GI50 is 269 nM and the TGI was 72400 nM.

With `COc1cc2c(c(OC)c1OC)-c1ccc(SC)c(=O)cc1[C@@H](O)CC2`, the pIC50 in [3] was 6.25.

As to `COc1cc2c(c(OC)c1OC)-c1ccc(OC)c(=O)cc1[C@@H](NC(C)=O)CC2` [COLCHICINE], the pIC50 in series [3] was 6.19.

Turning to `COc1cc([C@@H]2c3cc4c(cc3[C@@H](Nc3ccc(NC(=O)c5cc([N+](=O)[O-])cn5C)cc3)[C@H]3COC(=O)[C@H]23)OCO4)cc(OC)c1O`, in the series with KB, the pIC50 is 7.40 and the CC50 is 150 nM. Also, the IC100 in series [5] came out at 12.5 µM. This compound showed a GI50 in the series with MOLT-4 below 10 nM. Moreover, the 50% growth inhibitory concentration (GI50) in the series with MCF7 was below 10 nM.

In [3], `COc1cc2c(c(OC)c1OC)-c1ccc(SC)c(=O)cc1C(=O)CC2` [THIOCOLCHICONE] showed a pIC50 of 6.25.

Compound `CC1(C)CC[C@]2(C(=O)O)CC[C@]3(C)C(=CC[C@@H]4[C@@]5(C)CC[C@H](O)C(C)(C)[C@@H]5CC[C@]43C)[C@@H]2C1` [OLEANOLIC_ACID] displayed an EC50 in series [6] of 1.7 µg/mL.

For `COc1cc([C@@H]2c3cc4c(cc3[C@@H](O[C@@H]3O[C@@H]5CO[C@@H](C)O[C@H]5[C@H](O)[C@H]3O)[C@H]3COC(=O)[C@H]23)OCO4)cc(OC)c1O` [ETOPOSIDE], in the series with KB, the pIC50 was 6.70 and the CC50 amounted to 3000 nM. The compound also registered an IC100 in [5] of 100 µM.

Regarding `C=C(C)[C@@H]1CC[C@]2(C(=O)O)CC[C@]3(C)[C@H](CC[C@@H]4[C@@]5(C)CC[C@H](OC(=O)CC(C)(C)C(=O)O)C(C)(C)[C@@H]5CC[C@]43C)[C@@H]12` [BEVIRIMAT], the pEC50 in series [6] is above 9.46.

Regarding `Cc1cnc2[nH]c(-c3cccc(Cl)c3)cc(=O)c2c1`, in series [4], the concentration for 50% growth inhibition (GI50) was 269 nM and the TGI is 72400 nM.

As for `O=c1cc(-c2ccccc2F)[nH]c2ccc(N3CCCC3)cc12`, the 50% growth inhibitory concentration (GI50) is 22.4 nM in series [7] and at most 10 nM in [8].

`COc1cc2c(c(OC)c1OC)-c1ccc(SC)c(=O)cc1[C@@H](OC(=O)c1ccncc1)CC2`: the pIC50 in series [3] is 6.25.

For `COc1cc2c(c(OC)c1OC)-c1c(cc3c(c1OC)OCO3)[C@H](OC(=O)c1ccccc1)[C@@](C)(O)[C@@H](C)C2` [GOMISIN G], the EC50 in series [6] came to 0.006 µg/mL.

With `COc1cccc(-c2cc(=O)c3ccc(C)nc3[nH]2)c1`, in [4], it took 269 nM to inhibit growth by half (GI50) and the TGI is 72400 nM.

In series [6], `CC1(C)Oc2ccc3ccc(=O)oc3c2[C@@H](OC(=O)C23CCC(C)(C(=O)O2)C3(C)C)[C@H]1OC(=O)C12CCC(C)(C(=O)O1)C2(C)C` (stereo partly drawn) showed a negative logarithm of the EC50 (pEC50) of 9.40.

The compound `CC1(C)C=C2[C@H]3CC[C@@H]4[C@@]5(C)CCC(=O)C(C)(C)[C@@H]5CC[C@@]4(C)[C@]3(C)CC[C@@]2(C(=O)O)CC1` [MORONIC ACID] had an EC50 in [6] below 0.1 µg/mL.

In turn, `COc1c2c(cc3c1-c1c(cc4c(c1OC)OCO4)[C@H](OC(=O)c1ccccc1)[C@@](C)(O)[C@@H](C)C3)OCO2` [SCHISANTHERIN D] showed an EC50 in series [6] of 0.5 µg/mL.

In turn, `CC(=O)O[C@@H]1[C@H](OC(=O)CC(C)C)c2c(ccc3ccc(=O)oc23)OC1(C)C` [SUKSDORFIN] gave a negative-log EC50 (pEC50) in series [6] of 5.89.

`COc1cc([C@@H]2c3cc4c(cc3[C@@H](Nc3ccccc3)[C@H]3COC(=O)[C@H]23)OCO4)cc(OC)c1O` yielded an ID50 in [1] of 50000 nM. Moreover, the inhibition in [2] was 125%.

On to `COc1cccc([C@@H]2CC(=O)c3cc(N4CCCC4)ccc3N2)c1`, for which the EC50 in the series with HCT-8, with KB, in the series on A549, with CAKI-1, in the series on SK-MEL-2 and with MCF7 was 0.008 µg/mL (≈ 0.0248 µM) throughout.

Regarding `CNc1ccc2c(cc1=O)[C@@H](NC(C)=O)CCc1cc(O)c(O)c(O)c1-2`, in [5], the result was Active. Also, the EC50 with CAKI-1 amounted to 0.72 µg/mL (≈ 2.02 µM); in the series with MCF7 it was 0.36 µg/mL (≈ 1.01 µM).

In the case of `COc1cc2c(c(OC)c1OC)-c1c(cc3c(c1OC)OCO3)C[C@@H](C)[C@@H](C)C2` [KADSURANIN], the EC50 in [6] came out at 0.8 µg/mL.

In turn, `CC1(C)CC[C@]2(C(=O)O)CC[C@]3(C)C(=CC[C@@H]4[C@@]5(C)CC[C@H](OC(=O)CC(C)(C)C(=O)O)C(C)(C)[C@@H]5CC[C@]43C)[C@H]2C1` displayed an EC50 in [6] of 0.0039 µg/mL.

Regarding `CC(=O)N[C@H]1CCc2cc(O)c(O)c(O)c2-c2ccc(NC(=O)c3ccc(Cl)cc3)c(=O)cc21`, the result in series [5] was Active. Moreover, the EC50 in the series on CAKI-1 amounted to 0.98 µg/mL (≈ 2.04 µM); in the series on MCF7, 0.48 µg/mL (≈ 0.998 µM).

In the case of `Cc1cc(=O)oc2c3c(ccc12)OC(C)(C)[C@H](OC(=O)C12CCC(C)(C(=O)O1)C2(C)C)[C@@H]3OC(=O)C12CCC(C)(C(=O)O1)C2(C)C` (stereo partly drawn), the pEC50 in series [6] is 12.80.

Turning to `Cc1cnc2[nH]c(-c3cccc(F)c3)cc(=O)c2c1`, in series [4], the GI50 is 269 nM and the TGI is 72400 nM.

`COc1c2c(cc3c1-c1c(cc4c(c1OC)OCO4)C[C@H](C)[C@H](C)C3)OCO2` [SCHISANDRIN C] had an EC50 in [6] of 1.2 µg/mL.

What is called inhibition is the relative decrease from the control value, in per cent. Usually LD50 stands for the dose expected to kill half of the subjects tested. A higher LD50 goes with a less toxic substance. Usually GI50 stands for the concentration at which growth is held to half of that of the control. Read a high GI50 as lower sensitivity of the cells. As a reminder, the pEC50 is the EC50 on a negative log10 scale, so that one unit is a factor of ten.

The values above are taken from ChEMBL document CHEMBL1146484, “Current developments in the discovery and design of new drug candidates from plant natural product leads” (J Nat Prod, 2004).
